This is an account of results in patent US11286248B2, “Pyrazine-2(1H)-ketone compound acting as FGFR inhibitor” (ZHANGZHOU PIEN TZE HUANG PHARMACEUTICAL CO., LTD., priority 2018, dated 2022).

SMILES strings stand for the structures. Structures can show the parent of a compound that is named as a salt. Where two headings read alike, the source gives them in different places.

One series deals with T1, human FGFR1 (Homo sapiens, UniProt P11362).
T1 construct: purchased Invitrogen PV3146
Briefly: 33P isotope-labeled kinase activity test (Reaction Biology Corp), wild-type FGFR1. It is filed as biochemical. To be noted: 33P-ATP 5 μM, substrate pEY + Mn, 120 minutes at room temperature. The procedure: (§1) The IC50 value is determined using ^33P isotope-labeled kinase activity test (Reaction Biology Corp) to evaluate the inhibitory ability of the compounds to be tested on human FGFR1 and FGFR4.
(§2) Buffer conditions: 20 mM 4-(2-hydroxyethyl)-1-piperazineethanesulfonic acid (Hepes) (pH 7.5), 10 mM MgCl2, 1 mM ethylene glycol-bis-(2-aminoethyl ether)tetraacetic acid (EGTA), 0.02% polyoxyethylene lauryl ether (Brij35), 0.02 mg/ml bovine serum albumin (BSA), 0.1 mM sodium vanadate (Na3VO4), 2 mM dithiothreitol (DTT), and 1% DMSO.
Test steps: At room temperature, the compounds to be tested are dissolved in DMSO to prepare a 10 mM solution for use. The substrate is dissolved in the newly prepared buffer, and the kinase to be tested is added and mixed well. The DMSO solution in which the compounds to be tested are dissolved is added to the above-mentioned homogeneous reaction solution using acoustic technology (Echo 550). […] After incubating for 15 minutes, ^33P-ATP (activity: 0.01 μCi/μl, with corresponding concentration being listed in table 1) is added to start the reaction. The supplier article number, batch number, and the concentration information in the reaction solution of FGFR1, FGFR4 and substrates thereof are listed in table 1. […] The kinase activity data is expressed by comparing the kinase activity of the groups containing the compounds to be tested with that of the blank group (containing only DMSO). The IC50 value is obtained by curve fitting using Prism4 software (GraphPad), and the experimental results are shown in table 2.

The next series deals with T2, FGFR2 (Homo sapiens, UniProt P21802).
T2 construct: purchased Invitrogen PV3368
T2 sequence (P21802 22-821): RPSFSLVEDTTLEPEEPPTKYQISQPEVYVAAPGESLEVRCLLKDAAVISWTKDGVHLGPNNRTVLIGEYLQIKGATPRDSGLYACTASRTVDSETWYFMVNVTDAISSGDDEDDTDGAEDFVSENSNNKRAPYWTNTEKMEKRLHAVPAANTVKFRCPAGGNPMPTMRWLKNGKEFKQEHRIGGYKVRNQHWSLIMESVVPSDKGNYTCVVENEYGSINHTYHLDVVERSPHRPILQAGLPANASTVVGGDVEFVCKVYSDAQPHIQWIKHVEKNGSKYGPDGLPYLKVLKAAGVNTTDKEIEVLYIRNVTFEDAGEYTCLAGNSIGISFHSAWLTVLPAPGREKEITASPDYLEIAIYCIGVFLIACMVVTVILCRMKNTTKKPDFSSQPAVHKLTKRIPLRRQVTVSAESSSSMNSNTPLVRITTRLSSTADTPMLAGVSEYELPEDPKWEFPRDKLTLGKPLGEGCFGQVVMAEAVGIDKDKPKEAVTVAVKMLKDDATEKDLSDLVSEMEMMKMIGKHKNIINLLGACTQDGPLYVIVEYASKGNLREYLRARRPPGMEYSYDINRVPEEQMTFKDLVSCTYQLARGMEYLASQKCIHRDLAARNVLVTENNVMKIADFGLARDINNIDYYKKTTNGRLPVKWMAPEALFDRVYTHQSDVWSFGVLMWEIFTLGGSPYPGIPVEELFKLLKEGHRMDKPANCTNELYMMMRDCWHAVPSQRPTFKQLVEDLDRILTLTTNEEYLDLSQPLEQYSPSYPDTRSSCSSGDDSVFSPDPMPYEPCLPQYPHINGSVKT
The series is described as follows: 33P isotope-labeled kinase activity test (Reaction Biology Corp), wild-type FGFR2. It is filed as biochemical.

The target of the next series is T3, FGFR3 (Homo sapiens, UniProt P22607).
T3 construct: purchased Invitrogen PV3145
T3 sequence (P22607 23-806): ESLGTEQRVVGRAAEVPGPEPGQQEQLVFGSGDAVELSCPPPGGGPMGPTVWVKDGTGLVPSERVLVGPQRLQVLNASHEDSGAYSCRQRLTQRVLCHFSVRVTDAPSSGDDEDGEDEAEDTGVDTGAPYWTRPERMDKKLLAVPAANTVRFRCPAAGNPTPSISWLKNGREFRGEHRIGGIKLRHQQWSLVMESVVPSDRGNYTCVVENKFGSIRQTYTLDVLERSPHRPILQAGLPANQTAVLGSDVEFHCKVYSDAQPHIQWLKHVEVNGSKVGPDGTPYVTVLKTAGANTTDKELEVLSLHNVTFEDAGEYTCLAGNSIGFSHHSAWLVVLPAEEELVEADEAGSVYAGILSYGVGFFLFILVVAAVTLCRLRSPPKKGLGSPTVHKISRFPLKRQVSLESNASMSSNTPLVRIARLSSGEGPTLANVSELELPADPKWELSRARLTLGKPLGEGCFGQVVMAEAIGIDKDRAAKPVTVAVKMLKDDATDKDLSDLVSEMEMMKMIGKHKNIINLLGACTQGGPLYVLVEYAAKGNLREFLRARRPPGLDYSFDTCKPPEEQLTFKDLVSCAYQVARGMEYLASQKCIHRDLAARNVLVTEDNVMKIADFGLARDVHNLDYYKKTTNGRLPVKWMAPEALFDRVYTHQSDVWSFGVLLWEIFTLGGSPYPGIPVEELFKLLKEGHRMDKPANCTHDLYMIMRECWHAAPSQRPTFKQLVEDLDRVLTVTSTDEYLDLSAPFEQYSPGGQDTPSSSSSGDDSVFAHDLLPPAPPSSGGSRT
The series is described as follows: 33P isotope-labeled kinase activity test (Reaction Biology Corp), wild-type FGFR3. In kind it is biochemical.

A further series has as its target T4, human FGFR4 (Homo sapiens, UniProt P22455).
T4 construct: purchased Invitrogen P3054
Briefly: 33P isotope-labeled kinase activity test (Reaction Biology Corp), wild-type FGFR4. In kind it is biochemical. The conditions noted are these: 33P-ATP 2.5 μM, substrate pEY + Mn, 120 minutes at room temperature. The procedure:
as §1, §2
Test steps: At room temperature, the compounds to be tested are dissolved in DMSO to prepare a 10 mM solution for use. The substrate is dissolved in the newly prepared buffer, and the kinase to be tested is added and mixed well. The DMSO solution in which the compounds to be tested are dissolved is added to the above-mentioned homogeneous reaction solution using acoustic technology (Echo 550). […] After incubating for 15 minutes, ^33P-ATP (activity: 0.01 μCi/μl, with corresponding concentration being listed in table 1) is added to start the reaction. The supplier article number, batch number, and the concentration information in the reaction solution of FGFR1, FGFR4 and substrates thereof are listed in table 1. After the reaction is carried out at room temperature for 120 minutes, the reaction solution is spotted on P81 ion exchange filter paper (Whatman #3698-915). After the filter paper is repeatedly washed with 0.75% phosphoric acid solution, the radioactivity of the phosphorylated substrate remaining on the filter paper is measured. The kinase activity data is expressed by comparing the kinase activity of the groups containing the compounds to be tested with that of the blank group (containing only DMSO). The IC50 value is obtained by curve fitting using Prism4 software (GraphPad), and the experimental results are shown in table 2.

Series [1] is described as follows: Pharmacokinetic evaluation of compounds in mice. In kind it is in vivo. To be noted: CD-1 mouse (male), single gavage, plasma; for MRT last: read-out: MRT0-last. The procedure:
Experimental purpose: testing pharmacokinetics of the compounds in mice
CD-1 mouse (male), vehicle (an aqueous solution of 0.5% (w/v) methylcellulose and 0.5% (v/v) Tween 80), and trfluoroacetate salt of compound 0027.
The animals in groups 1 and 2 are administrated […] of the compounds by single gavage, respectively, and the administration volume is 10 mL/kg.
Whole blood samples (30 μl) are collected at the prescribed time points (0.25, 0.5, 1, 2, 4, 6, 8, 24 h) by saphenous vein blood collection, and the actual blood collection time is recorded in the test record. The acceptable error of the collection time point is a time point within 1 hour of administration time ±1 minute, and the acceptable error of other time points is a theoretical time ±5%.
All blood samples are immediately transferred to labeled commercial centrifuge tubes containing K2-EDTA. After being collected, the blood samples are centrifuged at 3200 rpm/min for 10 minutes at 4° C. to aspirate the supernatant plasma, which is quickly placed in dry ice, and kept at −20° C. or a lower temperature for LC-MS/MS analysis.

T1 sequence (P11362 22-822): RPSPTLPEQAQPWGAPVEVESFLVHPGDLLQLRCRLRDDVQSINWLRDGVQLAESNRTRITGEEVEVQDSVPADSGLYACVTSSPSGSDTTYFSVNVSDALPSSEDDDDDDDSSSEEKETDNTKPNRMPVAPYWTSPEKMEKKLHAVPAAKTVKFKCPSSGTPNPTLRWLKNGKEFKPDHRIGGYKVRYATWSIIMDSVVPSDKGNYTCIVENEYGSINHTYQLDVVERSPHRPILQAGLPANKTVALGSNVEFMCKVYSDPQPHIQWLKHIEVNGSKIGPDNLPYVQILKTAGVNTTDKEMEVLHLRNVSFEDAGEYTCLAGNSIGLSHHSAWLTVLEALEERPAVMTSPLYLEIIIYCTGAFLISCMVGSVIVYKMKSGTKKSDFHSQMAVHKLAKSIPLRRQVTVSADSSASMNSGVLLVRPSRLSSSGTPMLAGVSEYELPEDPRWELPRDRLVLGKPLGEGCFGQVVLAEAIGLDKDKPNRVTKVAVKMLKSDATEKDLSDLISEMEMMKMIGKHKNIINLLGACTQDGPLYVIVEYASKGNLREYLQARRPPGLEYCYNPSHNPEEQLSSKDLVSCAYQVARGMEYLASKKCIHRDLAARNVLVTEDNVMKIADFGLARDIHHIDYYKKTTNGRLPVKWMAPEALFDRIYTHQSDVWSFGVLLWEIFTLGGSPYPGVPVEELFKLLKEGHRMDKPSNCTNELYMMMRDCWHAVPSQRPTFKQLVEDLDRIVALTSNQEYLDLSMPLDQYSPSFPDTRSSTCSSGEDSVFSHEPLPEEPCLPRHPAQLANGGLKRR
T4 sequence (P22455 22-802): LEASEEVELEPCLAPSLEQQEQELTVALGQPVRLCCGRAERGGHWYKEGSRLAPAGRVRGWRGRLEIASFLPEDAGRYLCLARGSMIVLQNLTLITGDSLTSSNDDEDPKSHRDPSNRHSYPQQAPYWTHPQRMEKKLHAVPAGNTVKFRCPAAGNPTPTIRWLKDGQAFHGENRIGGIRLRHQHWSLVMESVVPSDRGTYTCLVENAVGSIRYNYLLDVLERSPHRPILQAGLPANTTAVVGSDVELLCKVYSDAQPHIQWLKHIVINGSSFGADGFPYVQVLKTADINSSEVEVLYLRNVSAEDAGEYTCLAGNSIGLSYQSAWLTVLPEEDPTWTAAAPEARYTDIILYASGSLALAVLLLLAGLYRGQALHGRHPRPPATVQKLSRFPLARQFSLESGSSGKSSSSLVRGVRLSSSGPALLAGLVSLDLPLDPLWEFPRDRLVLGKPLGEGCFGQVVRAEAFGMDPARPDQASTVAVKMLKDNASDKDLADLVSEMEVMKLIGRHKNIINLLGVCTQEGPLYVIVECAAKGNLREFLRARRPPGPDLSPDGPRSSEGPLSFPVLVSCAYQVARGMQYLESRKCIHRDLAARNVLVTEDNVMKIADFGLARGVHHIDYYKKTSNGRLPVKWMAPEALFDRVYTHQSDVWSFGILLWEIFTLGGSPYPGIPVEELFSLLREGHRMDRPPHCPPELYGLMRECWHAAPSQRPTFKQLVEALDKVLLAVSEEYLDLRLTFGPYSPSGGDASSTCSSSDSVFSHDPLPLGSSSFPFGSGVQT

On to `COc1cc(OC)c(Cl)c(-c2nc(-c3nc(-c4cn(C)nc4C)cnc3N)cn(C)c2=O)c1` [Trifluoroacetate salt of 0027], for which the IC50 (as a rule, the concentration that inhibits the measured activity by half) on human FGFR1 was found to be 2.12 nM. Also, the “Selectivity FGFR1/2” value on FGFR2 (ratio of IC50 FGFR1 to IC50 FGFR2) turned out to be 4.02. For the same molecule, the concentration for half-maximal inhibition (IC50) at FGFR2 (wild-type kinase, 33P-ATP 5 μM, substrate pEY + Mn, 120 minutes at room temperature) is 0.53 nM. The “Selectivity FGFR1/3” value on FGFR3 (ratio of IC50 FGFR1 to IC50 FGFR3) was 3.06. Further, the half-inhibitory concentration (IC50) on FGFR3 (wild-type kinase, 33P-ATP 30 μM, substrate pEY + Mn, 120 minutes at room temperature) turned out to be 0.69 nM. Also, at human FGFR4, the IC50 was 106 nM. Moreover, in series [1] (300 mpk), the Tlast is 24.0 h. Further, in series [1] (po, 50 mg/kg, 50 mpk), the area under the curve AUC(0-inf) (in general, the area under the concentration-time curve extrapolated to infinity) stood at 95.8 µM·h; the AUC(0-t) (in general, the area under the concentration-time curve up to a stated or last time point) amounted to 85.8 µM·h; the Cmax (commonly the highest concentration seen after dosing) was found to be 14.8 µM; the Tmax (usually the time from dosing to the highest level) was 1 h. Also, in series [1] (po, 50 mg/kg, 50 mpk), the half-life – broadly, the time needed for the level to fall by half in the phase considered – was 2.46 h and the MRT last was 4.33 h. Also, in series [1] (po, 50 mg/kg, 50 mpk, read-out: MRT0-inf), the MRT inf stood at 5.39 h. Also, in series [1] (po, 300 mg/kg, 300 mpk), the AUC(0-t) is 699 µM·h, the highest level (Cmax) was 42.1 µM, the Tmax was 7 h and the MRT last was 11.1 h.
